biological target: T1, BTK kinase (Homo sapiens, UniProt Q06187); assay: Assay of inhibition activity of BTK in vitro (HTRF kit, read on Envision); format: biochemical; details: not given
T1 construct: purchased Invitrogen PR5442A
Method: Assay of Inhibition Activity of BTK In Vitro
The inhibition of compounds on BTK kinase was evaluated by […] detected by Envision, using the IC50 value of the compounds as index.
BTK kinase: Invitrogen-PR5442A
HTRF Assay Kit: Cisbio-62TKOPEJ
Plate for compound preparation: Greiner-781280
Cisbio HTRF Kit: Cisbio-62TKOPEJ
Centrifuge: Eppendorf-5810R
Bravo: Agilent Technologies-Bravo
Gradient Dilution of Compounds: […]
The test compound was dissolved with DMSO to be of 1 mM as a stock solution. Such a stock solution was diluted with DMSO by 10-fold, thereby obtaining an initial solution in a concentration of […] which was added into wells at the second column in a plate. 20 μL DMSO was added to other wells using Bravo. Then, 10 μL of the initial solution was transferred from wells at the second column to wells at the third column, followed by mixing obtained solution in the wells at the third column, thereby obtain a first diluted solution in a concentration of 1/3 μM. Subsequently, 10 μL of the first diluted solution was further transferred from wells at the third column to wells at the fourth column, followed by mixing obtained solution in the wells at the fourth column, thereby obtain a second diluted solution in a concentration of 1/9 μM. Such a three-fold serial dilution was performed 10 times, with 11 solutions in series diluted concentrations and a final diluted solution in a concentration of 0.017 nM obtained.
All diluted solutions were further diluted by 25-fold with ultrapure water, thus obtain test solutions, which were equilibrated at r.t. for 30 min before use.
To 2.5 μL of test solution, which was pipetted into each well of Assay plate using Bravo, 5 μL kinase mixture was added using the multi-channel pipettor. The mixture was centrifuged at 1000 rpm for 20 s, followed by incubation at 23° C. for 30 min. The reaction was initiated by 2.5 μL ATP mixture which was pipetted into the wells by Multidrop.
The reaction mixture of BTK kinase (10 μL) included 1.0 nM BTK, 1 μM biotin-TK1 peptide and 20 μM ATP. The reaction buffer included 50 mM Hepes (pH7.5), 10 mM MgCl2 and 0.01 mM […]. The kinase mixture was reacted in incubator at 23° C. for 90 mim.
The reaction was stopped by adding 10 μL Detection Reagent to each well of Assay plate, and the plate was left in incubator at 23° C. for 1 h before read on Envision.
Data analysis: The IC50 values of compounds were calculated using Excel fit.

T1 sequence (Q06187 whole entry): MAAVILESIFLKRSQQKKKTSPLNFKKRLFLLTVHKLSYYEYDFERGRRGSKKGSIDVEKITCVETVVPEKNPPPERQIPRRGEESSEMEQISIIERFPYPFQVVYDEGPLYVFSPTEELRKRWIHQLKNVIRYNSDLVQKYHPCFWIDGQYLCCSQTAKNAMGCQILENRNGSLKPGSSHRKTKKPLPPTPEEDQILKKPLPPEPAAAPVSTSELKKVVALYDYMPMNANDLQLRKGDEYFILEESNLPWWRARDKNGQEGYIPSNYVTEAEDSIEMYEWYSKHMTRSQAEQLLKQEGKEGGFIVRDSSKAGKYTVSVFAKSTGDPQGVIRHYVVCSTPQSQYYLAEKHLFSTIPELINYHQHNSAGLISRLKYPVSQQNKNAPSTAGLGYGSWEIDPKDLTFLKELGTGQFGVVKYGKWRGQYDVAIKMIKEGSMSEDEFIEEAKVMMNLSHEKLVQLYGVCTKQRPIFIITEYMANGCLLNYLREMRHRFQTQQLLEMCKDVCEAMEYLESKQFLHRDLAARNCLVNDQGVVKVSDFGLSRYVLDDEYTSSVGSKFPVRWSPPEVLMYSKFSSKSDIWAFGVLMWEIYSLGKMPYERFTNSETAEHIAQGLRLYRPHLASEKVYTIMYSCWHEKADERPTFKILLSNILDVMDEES

Row | SMILES | IC50
1 | CN1CCN(C)[C@H](c2ccc(Nc3nc(-c4ccc5c(c4)c(C(=O)c4ccc(C6CC6)cc4F)cn5C)cn(C)c3=O)cc2)C1=O [Example 9] | 1000 to 10000 nM

same assay, conditions: 1.0 nM BTK, 1 μM biotin-TK1 peptide, 20 μM ATP, 23° C., tested by Envision; read-out: BTK IC50

Row | SMILES | IC50
2 | C=CC(=O)N1CCC[C@@H](Nc2ncnc(N)c2C(=O)c2ccc(Nc3ccccc3)cc2)C1 [Example 4] | 1000 to 10000 nM
3 | C=CC(=O)N1CCC[C@@H](n2nc(-c3ccc(Oc4ccccn4)cc3)c3c(N)n[nH]c(=O)c32)C1 [Example 32] | < 100 nM
4 | C=CC(=O)N1CCCC(n2nc(-c3ccc(Oc4ccc(C)cc4)cc3)c3c(N)n[nH]c(=O)c32)C1 (stereo not drawn) [Example 55] | < 100 nM
5 | C=CC(=O)N1CCC[C@@H](n2nc(-c3ccc(C4OCCO4)cc3)c3c(N)n[nH]c(=O)c32)C1 [Example 49] | < 100 nM
6 | C=CC(=O)N[C@H]1CC[C@@H](n2nc(-c3ccc(OC4CC5CC5C4)cc3)c3c(N)n[nH]c(=O)c32)CC1 (stereo partly drawn) [Example 41] | < 100 nM
7 | C=CC(=O)N1CCC[C@@H](n2nc(-c3ccc(Oc4ncccc4C)cc3)c3c(N)n[nH]c(=O)c32)C1 [Example 93] | < 100 nM
8 | C=CC(=O)N1CCC[C@@H](n2nc(-c3ccc(C(=O)N4CCCC4)cc3)c3c(N)n[nH]c(=O)c32)C1 [Example 66] | < 100 nM
9 | C=CC(=O)N1CCC[C@@H](n2nc(-c3ccc(-c4nc5ccccc5o4)cc3)c3c(N)n[nH]c(=O)c32)C1 [Example 88] | < 100 nM
10 | C=CC(=O)Nc1cccc(-n2cnc3cnc(Nc4ccc(Oc5ccccc5)cc4)nc32)c1 [Example 29] | 1000 to 10000 nM
11 | C=CC(=O)N1CCC[C@@H](n2nc(-c3ccc(Oc4ccc(F)cn4)cc3)c3c(N)n[nH]c(=O)c32)C1 [Example 44] | < 100 nM
12 | C=CC(=O)N1CCC[C@@H](Nc2cc3ncc(-c4ccc(Oc5ccccc5)cc4)c(=O)n3cn2)C1 [Example 17] | 1000 to 10000 nM
13 | C=CC(=O)N[C@H]1CC[C@H](n2nc(-c3ccc(Oc4ccccc4)cc3)c3c(N)n[nH]c(=O)c32)CC1 [Example 63] | < 100 nM
14 | C=CC(=O)N1CCC[C@@H](n2nc(-c3ccc(-n4cc5ccccc5n4)cc3)c3c(N)n[nH]c(=O)c32)C1 [Example 48] | < 100 nM
15 | Cc1c(-c2cc(Nc3ccc(N4CCN(C)CC4)cn3)c(=O)n(C)c2)cccc1-c1ccc(-c2ccccc2)n(C)c1=O [Example 7] | 1000 to 10000 nM
16 | CN(C)C/C=C/C(=O)N[C@H]1CC[C@@H](n2nc(-c3ccc(Oc4ccccn4)cc3)c3c(N)n[nH]c(=O)c32)CC1 [Example 64] | 100 to 1000 nM
17 | C=CC(=O)N1CCC[C@@H](Nc2ncnc(N)c2C(=O)c2ccc(Oc3ccccc3)cc2F)C1 [Example 26] | 1000 to 10000 nM
18 | C=CC(=O)N1CCC[C@@H](n2nc(-c3ccc(OC4CCCCC4)cc3)c3c(N)n[nH]c(=O)c32)C1 [Example 80] | < 100 nM
19 | C=CC(=O)N1CCC[C@@H](Nc2ncnc3[nH]cc(-c4ccccc4)c(=O)c23)C1 [Example 8] | 1000 to 10000 nM
20 | Cc1ccn2c(=O)c(-c3cccc(-c4cn(C)c(=O)c(Nc5ccc([C@@H]6C(=O)NCCN6C)cc5)n4)c3C)ccc2c1 [Example 11] | 1000 to 10000 nM
21 | CN(C)C/C=C/C(=O)N(C)CCn1nc(-c2ccc(Oc3ccccc3)cc2)c2c(N)n[nH]c(=O)c21 [Example 34] | < 100 nM
22 | C=CC(=O)N1CCCC(n2c(=O)c(-c3ccc(Oc4ccccc4)cc3)cc3c(N)ncnc32)C1 (stereo not drawn) [Example 30] | 100 to 1000 nM
23 | C=CC(=O)N1CCC[C@@H]1Cn1nc(-c2ccc(Oc3ccccc3)cc2)c2c(N)n[nH]c(=O)c21 [Example 38] | < 100 nM
24 | C=CC(=O)N1CCC[C@H]1Cn1nc(-c2ccc(Oc3ccccc3)cc2)c2c(N)n[nH]c(=O)c21 [Example 37] | < 100 nM
25 | Nc1n[nH]c(=O)c2c1c(-c1ccc(Oc3ccccc3)cc1)nn2[C@@H]1CCCN(C(=O)/C=C/CN2CCOCC2)C1 [Example 36] | < 100 nM
26 | C=CC(=O)N1CCC[C@@H](Nc2ncnc(N)c2C(=O)c2ccc(N(C)c3ccccc3)cc2)C1 [Example 3] | 1000 to 10000 nM

Row | SMILES | IC50
27 | C=CC(=O)N1CCC[C@@H](n2nc(-c3ccc4c(cnn4-c4ccccc4)c3)c3c(N)n[nH]c(=O)c32)C1 [Example 47] | 1000 to 10000 nM
28 | C=CC(=O)N1CCCC(n2nc(-c3ccc(Oc4ccccc4)cc3)c3c(N)noc(=O)c32)C1 (stereo not drawn) [Example 70] | 1000 to 10000 nM
29 | C=CC(=O)N1CCC[C@@H](n2nc(-c3ccc(OC4CCCC4)cc3)c3c(N)n[nH]c(=O)c32)C1 [Example 79] | < 100 nM
30 | C=CC(=O)N1CCCC(n2nc(-c3ccc(Oc4cccc(C)c4)cc3)c3c(N)n[nH]c(=O)c32)C1 (stereo not drawn) [Example 67] | 1000 to 10000 nM
31 | C=CC(=O)N1CCC[C@@H](Nc2ncnc(N)c2C(=O)c2ccc(Oc3ccccc3)cc2)C1 [Example 1] | 100 to 1000 nM
32 | C=CC(=O)N1CCCC(n2nc(-c3ccc(Oc4ccccc4)cc3)c3cc4c(N)ncnc4cc32)C1 (stereo not drawn) [Example 108] | 1000 to 10000 nM
33 | C=CC(=O)N1CCC[C@@H](n2nc(-c3ccc(Oc4ccc(C)nn4)cc3)c3c(N)n[nH]c(=O)c32)C1 [Example 90] | 100 to 1000 nM
34 | C=CC(=O)N1CCCC(n2nc(-c3ccc(Oc4ccccc4)cc3)c3c(N)nn(CCO)c(=O)c32)C1 (stereo not drawn) [Example 50] | 100 to 1000 nM
35 | C=CS(=O)(=O)N[C@H]1CC[C@@H](n2nc(-c3ccc(Oc4ccccc4)cc3)c3c(N)n[nH]c(=O)c32)CC1 [Example 58] | < 100 nM
36 | C=CC(=O)N1CCC[C@@H](n2nc(-c3ccc(Oc4cccc(C)n4)cc3)c3c(N)n[nH]c(=O)c32)C1 [Example 92] | < 100 nM
37 | C=CC(=O)N1CCC[C@@H](n2nc(-c3ccc(Oc4ccccc4)cc3)c3c(N)n[nH]c(=O)c32)C1 [Example 28] | < 100 nM
38 | C=CC(=O)Nc1ccc(-c2nc3cnc(Nc4ccc(OCCOC)cc4)nc3[nH]2)cc1 [Example 22] | < 100 nM
39 | C=CC(=O)N1CCC[C@@H](n2cc(-c3ccc(Oc4ccccc4)cc3)c3c(N)n[nH]c(=O)c32)C1 [Example 53] | < 100 nM
40 | Cc1ccn2c(=O)c(-c3cccc(-c4cc(Nc5ccc(N6CCN(C)CC6)cn5)c(=O)n(C)c4)c3C)cnc2c1 [Example 6] | 1000 to 10000 nM
41 | C=CC(=O)Nc1cccc(-n2nc3c(=O)[nH]nc(N)c3c2-c2ccc(Oc3ccccc3)cc2)c1 [Example 69] | < 100 nM
42 | C=CC(=O)Nc1ccc2cnn(-c3ncnc(Nc4ccc(OCCOC)cc4)n3)c2c1 [Example 15] | 1000 to 10000 nM
43 | C=CC(=O)NC1CCCC(n2nc(-c3ccc(Oc4ccccc4)cc3)c3c(N)n[nH]c(=O)c32)C1 (stereo not drawn) [Example 62] | < 100 nM
44 | C=CC(=O)N(C)[C@H]1CC[C@@H](n2nc(-c3ccc(Oc4ccccc4)cc3)c3c(N)n[nH]c(=O)c32)CC1 [Example 82] | < 100 nM
45 | C=CC(=O)N1CCCC(n2nc(-c3ccc(Oc4ccccc4)cc3)c3cc4c(N)noc4cc32)C1 (stereo not drawn) [Example 107] | 1000 to 10000 nM
46 | CN(C)C/C=C/C(=O)N1CCC[C@@H](n2nc(-c3ccc(OC4Cc5ccccc5C4)cc3)c3c(N)n[nH]c(=O)c32)C1 [Example 75] | < 100 nM
47 | C=CC(=O)N1CCCC(n2nc(-c3ccc(Oc4cccc(F)c4)cc3)c3c(N)n[nH]c(=O)c32)C1 (stereo not drawn) [Example 56] | < 100 nM
48 | C=CC(=O)N1CCCC(n2nc(-c3ccc(Oc4ccccc4)nc3)c3c(N)n[nH]c(=O)c32)C1 (stereo not drawn) [Example 72] | < 100 nM
49 | C=CC(=O)N[C@H]1CC[C@@H](n2nc(-c3ccc(Oc4ccccc4F)cc3)c3c(N)n[nH]c(=O)c32)CC1 [Example 83] | < 100 nM
50 | C=CC(=O)N1CCCC(c2nc3cnc(Nc4ccc(OCCOC)cc4)nc3[nH]2)C1 (stereo not drawn) [Example 21] | 1000 to 10000 nM
51 | CN(C)C/C=C/C(=O)N1CC[C@@H](n2nc(-c3ccc(Oc4ccccc4)cc3)c3c(N)n[nH]c(=O)c32)C1 [Example 61] | < 100 nM
